Reference: patent US20200239832A1, “TOLERANCE OF MICROBIAL CELLS AGAINST ORTHO-AMINOBENZOATE IN PRESENCE OF ALKALI IONS AT NEUTRAL PH” (priority 2017, published 2020)

Columns and labels:
Type in all cases: cell-based, Corynebacterium glutamicum
[1] = tested on: C. glutamicum strain derived from ATCC 13032 by evolutionary engineering; assay: Comparison of metabolic activity after NH4-oAB and Na-oAB addition, batch cultivation in 1 L bioreactors (Example 2); settings: 40 mL of 500 g/L oAB stock solution at pH 7 added after 7 h and 24 h; FIG. 2
Description: (§1) FIG. 2: Influence of Na-oAB and NH4-oAB addition on oAB resistance during batch cultivation in 1 L scale with C. glutamicum ATCC 13032. Filled symbols: addition of 40 mL of 500 a oAB stock solution (oAB dissolved with NaOH at pH 7) after 7 h and 24 h. Open symbols: addition of 40 mL of 500 g/L oAB stock solution (oAB dissolved with NH4OH at pH 7) after 7 h and 24 h. Both bioreactors: addition of 36 g/L glucose (added as stock solution) after 7.5 h and 24.5 h to prevent a glucose limitation. Initial cultivation volume VL=1 L, temperature 30° C., pH=7 controlled with NH4OH (10 w % NH3), gassing rate with air=0.2 L/min, pO2 controlled at 30% air saturation by adjusting the stirrer speed between 200 and 1200 rpm.
A C. glutamicum strain derived from ATCC 13032 was used to compare the metabolic activity after NH4-oAB and Na-oAB addition during the cultivation. This strain was derived from Corynebacterium glutamicum ATCC 13032 by evolutionary engineering in order to increase its resistance against oAB.
It was not further genetically modified. Thus it was not capable of oAB-production. For this purpose, two 1 L bioreactors were filled with sterile cultivation medium including the following initial concentrations: 20 g/L glucose, 5 g/L (NH4)2SO4, 1 g/L KH2PO4, 1 g/L K2HPO4, 0.25 g/L MgSO4.7 H2O, 0.01 g/L CaCl2.2 H2O, 2 mg/L biotin (vitamin B7), 0.03 g/L protocatechuic acid (3,4-Dihydroxybenzoic acid), 0.01 g/L MnSO4.H2O, 0.01 g/L FeSO4.7H2O, 1 mg/L ZnSO4.7H2O, 0.2 mg/L CuSO4.5H2O and 0.02 mg/L NiCl2.6H2O.
(§2) The preculture medium for the cultivation in shake flasks contained additionally 42 g/L MOPS buffer, 3.7 g/L brain heart infusion broth, 5 g/L urea (CH4N2O) and 20 a (NH4)2SO4 (instead of 5 g/L). The preculture was cultivated in 300 mL shake flasks with a liquid volume of 25 mL at a temperatur of 28° C. and a shaking frequency of 180 rpm until OD600>20 was reached.

C. glutamicum ATCC 13032 = assay: Comparison of metabolic activity after NH4-oAB and Na-oAB addition, batch cultivation in 1 L bioreactors (Example 3); settings: for biomass accumulation after oAB addition: 40 mL of 500 g/L oAB stock solution at pH 7 added after 6.4 h and 23.6 h, FIG. 3
Description: as §1, with “FIG. 3:” for “FIG. 2:”, “500 g/L” for “500 a”, “after 6.4” for “after 7”, “and 23.6” for “and 24”, “h.” for “h. Both bioreactors: addition of 36 g/L glucose (added as stock solution) after 7.5 h and 24.5 h to prevent a glucose limitation.”
The influence of NH4 was tested with C. glutamicum ATCC 13032 (without further genetic modifications, not modified by evolutionary engineering) using two 1 L bioreactors filled with sterile cultivation medium including the following initial concentrations: […], 5 g/L (NH4)2SO4, 1 g/L KH2PO4, 1 g/L K2HPO4, 0.25 g/L MgSO4.7 H2O, 0.01 g/L CaCl2.2 H2O, 2 mg/L biotin (vitamin B7), 0.03 g/L protocatechuic acid (3,4-Dihydroxybenzoic acid), 0.01 g/L MnSO4.H2O, 0.01 g/L FeSO4.7H2O, 1 mg/L ZnSO4.7H2O, 0.2 mg/L CuSO4.5H2O and 0.02 mg/L NiCl2.6H2O.
as §2, with “20 g/L” for “20 a”
During the fermentation the temperature was controlled at 30° C. and pH was kept constant at pH=7 by adding aqueous NH4OH solution (10 w % NH3). The gassing rate was adjusted to 0.2 L/min air and the dissolved oxygen tension was controlled at 30% air saturation by adjusting the stirrer speed between 200 rpm and 1200 rpm.
40 mL of a 500 g/L oAB stock solution (oAB dissolved with NaOH at pH 7) was added to reactor 1 after 6.4 h and 23.6 h (filled symbols) and 40 mL of a 500 g/L oAB stock solution (oAB dissolved with NH4OH at pH 7) was added after 6.4 h and 23.6 h to reactor 2 (open symbols)
From this it follows that the toxicity of oAB on C. glutamicum ATCC 13032 in presence of high Na+ concentrations is reduced compared to the toxicity in presence of high NH4^+ concentrations.

[2] = tested on: modified C. glutamicum production strain; assay: Evaluation of the maximum tolerable oAB concentration, batch cultivation in 1 L bioreactor
Description: FIG. 1: Evaluation of the maximum tolerable oAB concentration during batch cultivation in a 1 L lab-scale bioreactor with a modified C. glutamicum production strain. Addition of 20 mL of a 500 g/L oAB stock solution (oAB dissolved with NaOH at pH 7) after 23 h and 39 h, 48 h (two times), 64 h (two times) and 71 h (two times) and addition of glucose solution after 40 h, 48 h, 63 h, 65 and 71.5 h to prevent a glucose limitation. Initial cultivation volume VL=1 L, temperature 30° C., pH=7 controlled by adding NH4OH (10 w % NH3) during cultivation, gassing rate with air=0.2 L/min, pO2 controlled at 30% air saturation by adjusting the stirrer speed between 200 and 1200 rpm.
The maximum tolerable oAB concentration in the presence of sodium ions in the medium was tested with a modified C. glutamicum production strain. This strain was derived from Corynebacterium glutamicum ATCC 13032 by evolutionary engineering in order to increase its resistance against oAB.
This strain was then genetically modified to make it capable of oAB-production. […]

[3] = according to FIG. 3, NH4+ as counter ion

Q: N.Nc1ccccc1C(=O)O [NH4-oAB] was tested. Which “OTR signal after oAB addition” value [1] did it give?
A: Its value is “constant OTR signal”.

Q: What about the “biomass concentration after oAB addition” value [1] of the same compound?
A: Its value is “reduced biomass accumulation”.

Q: And the “biomass accumulation after oAB addition” value (C. glutamicum ATCC 13032)?
A: Its value is “growth inhibition after 24 h”.

Q: What about the “o-aminobenzoate concentration above which the metabolic activity of bacterial cells (OTR) is limited” value (C. glutamicum ATCC 13032; [3]) of the same compound?
A: The value was “more than 25 g/L”.

Q: And the “o-aminobenzoate concentration at which cell growth (dry weight) stops” value (C. glutamicum ATCC 13032; [3])?
A: The value was greater than 50 g/L.

Q: Which “OTR signal after oAB addition” value [1] does the source give for Nc1ccccc1C(=O)[O-].[Na+] [Na-oAB] here?
A: Its value is “continued to increase”.

Q: What about the “biomass concentration after oAB addition” value [1] of the same compound?
A: The value was “continued to increase”.

Q: What about the “biomass accumulation after oAB addition” value (C. glutamicum ATCC 13032) of the same compound?
A: The value was “biomass accumulation continued”.

Q: What does the source list for Nc1ccccc1C(=O)O [oAB, 2-aminobenzoic acid]?
A: oAB concentration at which growth (increase in biomass concentration) was still observed ([2]; oAB added stepwise as sodium salt (dissolved with NaOH at pH 7), pH 7 controlled with NH4OH, 30° C.): 80 g/L; oAB concentration resulting in a decrease of the metabolic activity (declining OTR signal) and no further increase in biomass ([2]; oAB increased from 80 g/L to 100 g/L after 71 h, added as sodium salt, pH 7, 30° C.): 100 g/L
